According to patent US11414426B2, “Treatment of skin disorders” (PIQUR THERAPEUTICS AG, priority 2017, dated 2022):
Marks after values point to notes of the source that are not given here.

Tests used:
pPKB S473 in A2058 cells = assay: In-cell Western blot, pPKB S473; format: cell-based; conditions: Homo sapiens, A2058, 1 h, 1 hour treatment, normalized to α-tubulin
Description: (§1) Cells are fixed with 4% paraformaldehyde for 30 minutes at room temperature, washed 2 times with 1% BSA in PBS, permeabilized with 0.1% Triton X-100 in PBS/1% BSA for 30 minutes at room temperature and blocked with 5% goat serum in PBS/1% BSA/0.1% Triton X-100 for 30 minutes at room temperature. […] Cells are washed 3 times 5 minutes with PBS/1% BSA/0.1% triton and plate scanned with the Odyssey Infrared Scanning system using both 700 and 800 nm channels. […] To correct for background staining in the data analysis wells are treated only with secondary antibodies.
(§2) For data analysis the mean background signal from channel 700 nm and 800 nm are subtracted from each signal in channel 700 nm and 800 nm, respectively.
(§3) IC50 values of each compound are determined by plotting the normalized pPBK S473 and pS6 S235/S236 signals, respectively, versus the compound concentrations (in logarithmic scale) and then by fitting a sigmoidal dose-response curve with variable slope to the data using GraphPad™ Prism.

[1] = test system: pS6 S235/S236 in A2058 cells; assay: In-cell Western blot, pS6 S235/S236; format: cell-based; conditions: 1 hour treatment, normalized to α-tubulin
Description: as §1, §2, §3

[2] = Ex vivo pig skin penetration, formulations in 80% SBECD; format: in vitro ADME
Description: The control formulation Aldara (5% imiquimod) was applied to detect variations in skin permeability (local variability in the same animal and inter-subject variability). The stratum corneum was removed by tape stripping to avoid contamination during the biopsy extraction. […] One biopsy was taken from each control site. Additionally, 5 blank samples were taken.

[3] = Ex vivo pig skin PK profile, propylene glycol formulations; format: in vitro ADME
Description: Excised pig skin was placed in a climate chamber to control temperature and humidity. […] Before biopsies were taken the stratum corneum was removed by tape stripping and biopsies consisted of the remaining epidermis and entire dermis.

[4] = In vivo pig skin penetration; conditions: living pig, single topical application, propylene glycol preparations
[5] = target: T1, N-terminally GST-tagged mTOR (truncated version: amino acids 1360-2549) (Homo sapiens, UniProt P42345); assay: In vitro mTOR binding assay (LanthaScreen TR-FRET); conditions: 10 nM Tracer 314, 30 min RT
T1 construct: truncated version: amino acids 1360-2549; purchased Life Technologies PR8683B
Description: In Vitro mTOR Binding Assay
A 10-point 4-fold serial dilution (highest concentration at 10 μmol/L and lowest concentration at 40 pmol/L) of each compound was tested for mTOR binding in duplicate in a 384-well plate. […] After 30 min incubation at RT, time-resolved FRET was measured with a Synergy 4 multi-mode microplate reader (Biotek Instruments) using the following settings: 100 microsecs delay before data collection, 200 microsecs time for data collection, 10 measurements per data point.
IC50 values of each compound were determined by plotting the emission ratio versus the compound concentrations (in logarithmic scale) and then by fitting a sigmoidal dose-response curve with variable slope to the data using GraphPad™ Prism.

[6] = Stress stability in propyleneglycol at 60° C. (HPLC); format: physicochemical; conditions: 1% in propyleneglycol, 72 h
Description: The fraction of residual test item was determined by HPLC. […] During the observation period of 72 hrs.
Equal concentrations (1%) of the test items in propyleneglycol were heated to 60° C. and the fraction of residual test item was determined by HPLC.

T1 sequence (P42345 1360-2549): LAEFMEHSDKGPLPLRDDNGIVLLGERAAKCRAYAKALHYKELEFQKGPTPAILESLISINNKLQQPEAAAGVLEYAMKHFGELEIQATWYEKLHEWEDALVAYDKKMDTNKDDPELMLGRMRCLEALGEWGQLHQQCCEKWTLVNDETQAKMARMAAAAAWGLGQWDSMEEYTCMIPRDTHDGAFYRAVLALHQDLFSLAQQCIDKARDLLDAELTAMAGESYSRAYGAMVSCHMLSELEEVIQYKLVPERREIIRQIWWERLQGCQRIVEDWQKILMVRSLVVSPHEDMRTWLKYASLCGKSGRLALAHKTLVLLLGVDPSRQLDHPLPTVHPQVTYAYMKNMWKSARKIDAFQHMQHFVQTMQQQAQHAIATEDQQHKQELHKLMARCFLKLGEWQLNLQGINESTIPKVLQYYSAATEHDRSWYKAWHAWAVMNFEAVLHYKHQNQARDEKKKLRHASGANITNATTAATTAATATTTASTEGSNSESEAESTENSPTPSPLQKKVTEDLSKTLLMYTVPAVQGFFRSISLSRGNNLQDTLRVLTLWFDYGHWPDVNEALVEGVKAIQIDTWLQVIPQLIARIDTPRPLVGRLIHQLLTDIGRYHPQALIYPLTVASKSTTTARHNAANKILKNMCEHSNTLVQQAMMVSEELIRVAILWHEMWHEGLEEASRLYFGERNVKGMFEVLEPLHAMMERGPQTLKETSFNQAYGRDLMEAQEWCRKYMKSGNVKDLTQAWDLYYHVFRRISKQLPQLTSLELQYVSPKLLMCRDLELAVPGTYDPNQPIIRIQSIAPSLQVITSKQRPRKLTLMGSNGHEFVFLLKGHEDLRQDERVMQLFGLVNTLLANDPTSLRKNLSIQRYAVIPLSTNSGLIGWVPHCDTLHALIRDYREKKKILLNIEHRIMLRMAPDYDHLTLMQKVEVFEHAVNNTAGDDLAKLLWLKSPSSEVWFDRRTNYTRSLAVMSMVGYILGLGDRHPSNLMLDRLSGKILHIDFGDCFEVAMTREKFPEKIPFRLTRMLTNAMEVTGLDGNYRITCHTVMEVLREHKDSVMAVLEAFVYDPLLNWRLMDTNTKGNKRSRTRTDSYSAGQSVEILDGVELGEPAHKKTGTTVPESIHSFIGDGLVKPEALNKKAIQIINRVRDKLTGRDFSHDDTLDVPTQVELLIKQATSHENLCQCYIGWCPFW

Work on `Nc1cc(C(F)(F)F)c(-c2cc(N3CCOCC3)nc(N3CCOCC3)n2)cn1` [BKM 120] yielded an IC50 (pPKB S473 in A2058 cells) of 390 nM and an IC50 [1] of 640 nM.

With `Nc1cc(C(F)F)c(-c2nc(N3C4CCC3COC4)nc(N3C4CCC3COC4)n2)cn1` [Compound 3, 5-(4-(3-oxa-8-azabicyclo[3.2.1]octan-8-yl)-6-(3-oxa-8-azabicyclo[3.2.1]octan-8-yl)-1,3,5-triazin-2-yl)-4-(difluoromethyl)pyridin-2-amine] the “intrinsic penetration properties in comparison with Aldara (5% imiquimod)” value ([2]; ex vivo pig skin) was “slightly lower”, the “penetration into pig skin (lower epidermis and dermis)” value ([2]; ex vivo, 1% experimental formulations, 80% SBECD) was “penetrated into pig skin (lower epidermis and dermis) to a significant extent” and the “skin concentration / skin PK profile” value ([3]; 1% in 100% PG) was “comparable to 1*”. For the same compound, the “drug concentrations in the lower epidermis and dermis” value ([3]; 1% preparations containing propylene glycol, vs Aldara) was “high drug concentrations in the lower epidermis and dermis” and the “levels in epidermis and dermis after tape stripping” value [4] was “significant levels”.

`C[C@H]1COCCN1c1nc(-c2cnc(N)cc2C(F)F)nc(N2CCOC[C@@H]2C)n1` [Compound 6] showed an IC50 [5] of 23 nM.

In the case of `CO[C@H]1C[C@@H]2CC[C@@H](C)[C@@](O)(O2)C(=O)C(=O)N2CCCC[C@H]2C(=O)O[C@H]([C@H](C)C[C@@H]2CC[C@@H](O)[C@H](OC)C2)CC(=O)[C@H](C)/C=C(\C)[C@@H](O)[C@@H](OC)C(=O)[C@H](C)C[C@H](C)/C=C/C=C/C=C/1C` [Sirolimus], the “degraded (fraction of test item lost, HPLC)” value [6] is reported as 39%.
